Structures are written as SMILES.

The data set is described as follows: in vitro. The settings on record: human, hela cells, % viability.
Usually viability stands for a read-out of living cells in per cent, often relative to untreated cells. As to `COc1cc(C(=O)Nc2nnc(C3=COCCO3)o2)cc(OC)c1OC` [CBK287410], the viability at 28.5 h, 10 µM worked out at 97.6%.
Take `O=C(Nc1nnc(C2=COCCO2)o1)c1ccco1` [CBK287412]: the viability at 28.5 h, 10 µM worked out at 95.5%.
Then `Cc1ccc(C(=O)Nc2nnc(C3=COCCO3)o2)cc1C` [CBK287413], with 104%.
Next, `O=C(Cc1cccc2ccccc12)Nc1nnc(C2=COCCO2)o1` [CBK287414]: 86.6%; `O=C(Nc1nnc(C2=COCCO2)o1)c1cc(Cl)cc(Cl)c1` [CBK287418]: 91.1%.
Then `O=C(Nc1nnc(C2=COCCO2)o1)c1ccc(Cl)cc1Cl` [CBK287419], with 78%; and `O=C(Nc1nnc(-c2ccco2)o1)c1ccccc1` [CBK287420], with 96.3%.
Regarding `COc1cccc(C(=O)Nc2nnc(-c3ccco3)o2)c1` [CBK287421], the viability at 28.5 h, 10 µM turned out to be 106%.
On to `O=C(Nc1nnc(-c2ccco2)o1)c1cccc(C(F)(F)F)c1` [CBK287422], for which the viability at 28.5 h, 10 µM is 88.6%.
On to `O=C(Nc1nnc(-c2ccco2)o1)C(c1ccccc1)c1ccccc1` [CBK287424], for which the viability at 28.5 h, 10 µM was determined as 91.9%.
Then `CC(=O)Nc1nnc(-c2ccc3c(c2)CCCC3)o1` [CBK287426], with 88%.
For `N#Cc1ccc(C(=O)Nc2nnc(-c3ccccn3)o2)cc1` [CBK287428], the viability at 28.5 h, 10 µM worked out at 100%.
Then `Cc1cccc(C(=O)Nc2nnc(-c3ccncc3)o2)c1` [CBK287430], with 91.5%; and `COc1cc2ccccc2cc1C(=O)Nc1nnc(-c2ccncc2)o1` [CBK287432], with 93.1%.
Then `CCC(=O)NCCc1cc2ccc(C)cc2[nH]c1=O` [CBK287434], with 92.4%; and `COc1ccc(C(=O)Nc2cc(C)c3c(=O)oc4ccccc4c3n2)cc1` [CBK287435], with 79.6%; and `Cc1cc(NC(=O)C2CCCC2)nc2c1c(=O)oc1ccccc12` [CBK287438], with 93.2%.
As for `Cc1cc(NC(=O)C(C)(C)C)nc2c1c(=O)oc1ccccc12` [CBK287443], the viability at 28.5 h, 10 µM was 78.7%.
Then `O=C(NCc1ccc2c(c1)OCO2)c1cnc2sccn2c1=O` [CBK287446], with 91%; and `Cc1ccc(NC(=O)c2cnc3sccn3c2=O)cc1` [CBK287448], with 93.1%; and `O=C(Nc1ccc(F)c(F)c1)c1cnc2sccn2c1=O` [CBK287450], with 104%.
As to `Cc1cccc(NC(=O)c2cnc3scc(C)n3c2=O)c1` [CBK287453], the viability at 28.5 h, 10 µM is 112%.
For the compound `Cc1csc2ncc(C(=O)Nc3ccccc3F)c(=O)n12` [CBK287455], the viability at 28.5 h, 10 µM was 113%.
`Cc1csc2ncc(C(=O)Nc3ccccc3C(F)(F)F)c(=O)n12` [CBK287456]: the viability at 28.5 h, 10 µM was found to be 86.4%.
Consider `Cc1csc2ncc(C(=O)Nc3ccc(F)c(Cl)c3)c(=O)n12` [CBK287460], for which the viability at 28.5 h, 10 µM came to 107%.
As to `COc1ccc(OC)c(NC(=O)c2cnc3scc(C)n3c2=O)c1` [CBK287462], the viability at 28.5 h, 10 µM worked out at 90.5%.
Then `COc1cccc2sc(Nc3nc4c(s3)C(=O)CC(C)(C)C4)nc12` [CBK287467], with 86%.
Next, `COc1cccc2sc(Nc3nc(-c4cccs4)cs3)nc12` [CBK287469]: 82.8%; `COc1cccc2sc(Nc3nc(-c4cccnc4)cs3)nc12` [CBK287470]: 98.5%; `COc1cccc2sc(Nc3nc(C)c(C(C)=O)s3)nc12` [CBK287471]: 109%.
For `Fc1cccc2sc(Nc3nc(-c4cccs4)cs3)nc12` [CBK287476], the viability at 28.5 h, 10 µM amounted to 85.9%.
Consider `CC1CCc2c(sc(Nc3nc4c(F)cccc4s3)c2C(N)=O)C1` (stereo not shown) [CBK287477], for which the viability at 28.5 h, 10 µM was 102%.
For `Fc1cccc2sc(Nc3nc(-c4ccccn4)cs3)nc12` [CBK287479], the viability at 28.5 h, 10 µM was 108%.
Then `Fc1cccc2sc(Nc3nnc(-c4ccco4)o3)nc12` [CBK287480], with 82.6%; and `COc1ccc2nc(Nc3nc4c(s3)C(=O)CC(C)(C)C4)sc2c1` [CBK287481], with 90.5%; and `COc1ccc2nc(Nc3nc4ccc(S(C)(=O)=O)cc4s3)sc2c1` [CBK287484], with 102%.
For `Fc1ccc2nc(Nc3nnc(-c4ccco4)o3)sc2c1` [CBK287488], the viability at 28.5 h, 10 µM is 94.5%.
`CC(=O)Nc1ccc2nc(Nc3nc4c(F)cc(F)cc4s3)sc2c1` [CBK287489]: the viability at 28.5 h, 10 µM was 107%.
For the compound `c1cncc(-c2csc(Nc3nc4cc5c(cc4s3)OCO5)n2)c1` [CBK287490], the viability at 28.5 h, 10 µM was 87.2%.
Next, `c1c2c(cc3sc(N4CCOCC4)nc13)OCO2` [CBK287494]: 97.7%; `c1ccc(N2CCN(c3nc4cc5c(cc4s3)OCO5)CC2)cc1` [CBK287495]: 108%.
As to `c1c2c(cc3sc(N4CCCCC4)nc13)OCCO2` [CBK287497], the viability at 28.5 h, 10 µM worked out at 89.3%.
Next, `c1ccc(N2CCN(c3nc4cc5c(cc4s3)OCCO5)CC2)cc1` [CBK287499]: 93.6%.
Next, `CCSc1nnc(Cc2cc(=O)[nH]c(=O)[nH]2)n1-c1ccc(F)cc1` [CBK287500]: 85.2%; `Cc1c(C(=O)Nc2ccccn2)sc2nc(-c3ccccc3)cn12` [CBK287501]: 98.3%.
With `Cc1ccc(Cn2cnc3c(nnn3-c3ccc(C)cc3)c2=O)cc1` [CBK287502], the viability at 28.5 h, 10 µM stood at 102%.
With `Cc1ccc(C(=O)Nc2cccc(-c3cn4cccnc4n3)c2)cc1` [CBK287503], the viability at 28.5 h, 10 µM was found to be 93.8%.
On to `Cc1c(-c2cccc(NC(=O)c3ccccc3)c2)nc2ncccn12` [CBK287504], for which the viability at 28.5 h, 10 µM was 67.3%.
Next, `Cc1cc2cc(CCNC(=O)C(=O)c3c[nH]c4ccccc34)c(O)nc2cc1C` [CBK287511]: 89.5%.
Next, `O=C(CSc1ccc2nnc(-c3ccccc3)n2n1)NCc1ccco1` [CBK287514]: 95.6%; `O=C(CSc1ccc2nnc(-c3ccccc3)n2n1)NCC1CCCO1` (stereo not shown) [CBK287515]: 96.6%.
Consider `Cc1csc(NC(=O)CSc2ccc3nnc(-c4ccccc4)n3n2)n1` [CBK287517], for which the viability at 28.5 h, 10 µM stood at 105%.
On to `Cc1cc(NC(=O)CSc2ccc3nnc(-c4ccccc4)n3n2)no1` [CBK287518], for which the viability at 28.5 h, 10 µM turned out to be 94.8%.
For `O=C(CSc1ccc2nnc(-c3ccc(F)cc3)n2n1)N1CCCC1` [CBK287519], the viability at 28.5 h, 10 µM is 85.3%.
Next, `O=C(CSc1ccc2nnc(-c3ccc(F)cc3)n2n1)N1CCCCC1` [CBK287520]: 98.4%; `O=C(CSc1ccc2nnc(-c3ccc(F)cc3)n2n1)N1CCOCC1` [CBK287521]: 96.9%.
As to `O=C(CSc1ccc2nnc(-c3cccc(F)c3)n2n1)Nc1nccs1` [CBK287522], the viability at 28.5 h, 10 µM was 85.8%.
Then `CCC(Sc1ccc2nnc(-c3ccc(C)cc3)n2n1)C(=O)O` (stereo not shown) [CBK287524], with 104%; and `COc1ccc(-c2nnc3ccc(SC(C)C)nn23)cc1OC` [CBK287526], with 101%; and `COc1ccc(-c2nnc3ccc(SCC(=O)N4CCCC4)nn23)cc1OC` [CBK287527], with 85.9%.
As to `COc1ccc(-c2nnc3ccc(SCc4ccccn4)nn23)cc1OC` [CBK287528], the viability at 28.5 h, 10 µM is 97.4%.
Then `O=C(Cn1cnc2c(cnn2-c2ccccc2)c1=O)NCc1ccco1` [CBK287531], with 101%; and `Cc1ccc(-n2ncc3c(=O)n(CC(=O)Nc4cccc(C)c4)cnc32)cc1` [CBK287533], with 103%.
Then `Cc1ccc(-n2ncc3c(=O)n(CC(=O)Nc4ccc(C)cc4C)cnc32)cc1` [CBK287535], with 83.4%; and `O=C(Cn1cnc2c(cnn2-c2ccc(F)cc2)c1=O)Nc1ccc(F)cc1F` [CBK287537], with 89.3%.
Next, `O=C(Cn1cnc2c(cnn2-c2ccc(F)cc2)c1=O)NCc1ccccc1` [CBK287538]: 93.1%.
Regarding `NC(=O)c1nc(-c2ccccc2)nc2c1[nH]c(=O)n2-c1cccc(Cl)c1` [CBK287544], the viability at 28.5 h, 10 µM worked out at 104%.
Take `NC(=O)c1nc(-c2ccco2)nc2c1[nH]c(=O)n2-c1ccc(Cl)cc1` [CBK287545]: the viability at 28.5 h, 10 µM was 91.2%.
Next, `COc1ccc(-n2c(=O)[nH]cc(C(=O)Nc3cc(C)ccc3OC)c2=O)cc1` [CBK287548]: 107%; `COc1ccc(OC)c(NC(=O)c2c[nH]c(=O)n(-c3ccc(F)cc3)c2=O)c1` [CBK287552]: 99%; `O=C(c1c[nH]c(=O)n(-c2ccc(F)cc2)c1=O)N1CCc2ccccc21` [CBK287554]: 101%.
Then `COc1ccc(-n2c(=O)[nH]cc(C(=O)N3CCc4ccccc43)c2=O)cc1OC` [CBK287555], with 105%; and `Cc1nc2c(ccc3nc(NC(=O)c4ccccc4)sc32)s1` [CBK287560], with 91.7%.
Next, `O=C(Nc1nc(-c2ccncc2)cs1)c1sc2ccccc2c1Cl` [CBK287562]: 92.1%.
For the compound `COc1ccc(C(=O)Nc2nc(-c3nc4ccccc4s3)cs2)cc1` [CBK287563], the viability at 28.5 h, 10 µM turned out to be 102%.
Then `O=C(Nc1nc(-c2cccnc2)cs1)c1cccc(N2C(=O)CCC2=O)c1` [CBK287564], with 108%; and `CC1(C)CC(=O)c2sc(NC(=O)c3cccc(N4C(=O)CCC4=O)c3)nc2C1` [CBK287565], with 111%; and `NC(=O)c1c(NC(=O)c2nc3ccccc3s2)sc2c1CCCCC2` [CBK287566], with 96.5%.
Regarding `CSc1nc2ccc3nc(NC(C)=O)sc3c2s1` [CBK287567], the viability at 28.5 h, 10 µM was determined as 106%.
Then `CC(=O)Nc1ccccc1-c1nc2ccccc2o1` [CBK287568], with 100%.
As for `O=C(Nc1nccs1)c1cc(=O)c2ccccc2o1` [CBK287570], the viability at 28.5 h, 10 µM turned out to be 105%.
Then `COc1ccc2nc(NC(=O)c3ccc4c(c3)OCCO4)sc2c1` [CBK287572], with 103%.

Values taken from publication PMC12040169 (PLOS Biology, 2025).
